Source: PMC4396983 (Bioorganic & medicinal chemistry, 2015)

Key:
human recombinant LSD1 [1] = target: T1, human recombinant LSD1 (Homo sapiens, UniProt O60341); test: Recombinant LSD1 inhibition assay; type: biochemical; settings: 10 μM
human recombinant LSD1 [2] = target: T1, human recombinant LSD1; settings: previous studies ref 8; cited from earlier work

SMILES	Effect on LSD1 activity (human recombinant LSD1 [1])	Mode of inhibition (human recombinant LSD1 [2])
Cl.Cl.O=C(NCCCNCCCCCCNCCCNC(=O)NCc1ccccc1)NCc1ccccc1 [Compound 9d]	increase in the activity of LSD1	–
Cl.N=C(NCCCNCCCCCCCNCCCNC(=N)NC(=N)NCCC(c1ccccc1)c1ccccc1)NC(=N)NCCC(c1ccccc1)c1ccccc1 [Compound 2, verlindamycin]	–	non-competitive inhibitor
CCCNC(=O)NCCCNCCCCCCNCCCNC(=O)NCCC.Cl.Cl [Compound 9b]	increase in the activity of LSD1	–
CCNC(=O)NCCCNCCCCCCNCCCNC(=O)NCC.Cl.Cl [Compound 9a]	increase in the activity of LSD1	–
Cl.O=C(NCCCNCCCCCNCCCNC(=O)Nc1ccccc1)Nc1ccccc1 [Compound 7a, 1,13-bis-{3-[1-(phenyl)ureido]}-4,10-diazatridecane dihydrochloride]	increase in the activity of LSD1	–
